Data as given in article PMC9934367, “Functional impact of subunit composition and compensation on Drosophila melanogaster nicotinic receptors–targets of neonicotinoids” (PLOS Genetics, 2023).
Where two headings read alike, the source gives them in different places.

What was measured:
[1] = molecular target: T1, Dα3/Dβ1 nAChR (Drosophila melanogaster, UniProt P04755+Q9W3G6); assay: cell-based; assay type: cell-based, D. melanogaster; conditions: Dα3/Dβ1 nAChR, mean ± standard error (n = 5)
T1 construct: Dβ1 (NP_523927); expressed in transfected cells; host or cells: Xenopus laevis oocytes (cRNA injection)
Procedure: (§1) cDNAs of the nAChR subunits and co-factors were cloned into pcDNA3.1 (+) vector (Thermo Fisher Scientific). The accession numbers of the nAChR subunits and cofactors are as follows: Dα1 (NP_524481), Dα2 (NP_524482), Dα3 (NP_525079), Dα4 (CAB77445), Dβ1 (NP_523927), Dβ2 (NP_524483), Dβ3 (NP_525098), DmRIC-3 (CAP16647), DmUNC-50 (NP_649813), and DmTMX3 (NP_648847). cRNAs were prepared using the mMESSAGE mMACHINE T7 ULTRA Transcription Kit (Thermo Fisher Scientific, #AM1345) according to the manual with the cDNA template which was cut with appropriate restriction enzymes at the 3’ end of the cDNA.
(§2) We minimised the use of X. laevis according to the UK Animals (Scientific Procedures) Act, 1986. […] Oocytes were defolliculated after collagenase treatment in Ca^2+-free standard oocyte saline (Ca^2+-free SOS). cRNAs of the nAChR subunits and co-factors mixed at a concentration of 0.1 mg/mL was injected into oocytes at a volume of 50 nL. Then the oocytes were incubated in the incubation medium (SOS supplemented with sodium pyruvate (Nacalai Tesque, #13058–12), penicillin-streptomycin (MilliporeSigma, #P4333), gentamycin (Nacalai Tesque, #16672–04), and 4% horse serum (Thermo Fisher Scientific, #26050–070) for 3−4 days prior to electrophysiology.
(§3) Each defolliculated X. laevis oocyte was secured in a Perspex recording chamber and perfused with the standard oocyte saline (SOS) containing 0.5 μM atropine (SOSA) at a flow rate of 7−10 mL/min [48]. Two glass electrodes filled with 2 M KCl were impaled into each oocyte and the membrane potential was clamped at -100 mV. […] The peak amplitude of the response was measured and analysed by pCLAMP (Molecular Devices, USA).
(§4) Y=Imax/1+10^(logEC50‐X)nH
(§5) Where Y is the normalised response, X is log[ligand (M)], EC50 is the half maximal concentration (M), Imax is the maximum normalised response and nH is the Hill coefficient.

[2] = test system: T2, Dα1/Dα2/Dα3/Dβ1/Dβ2 nAChR; assay: Voltage-clamp electrophysiology, nAChR expressed in X. laevis oocytes; assay type: cell-based, D. melanogaster; conditions: mean ± standard error (n = 5)
T2 construct: Dα1 (NP_524481); Dα2 (NP_524482); Dβ1 (NP_523927); Dβ2 (NP_524483); expressed in transfected cells; host or cells: Xenopus laevis oocytes (cRNA injection)
Procedure: as §1, §2, §3, §4, §5

[3] = molecular target: T3, Dα1/Dα2/Dβ1 nAChR (Drosophila melanogaster, UniProt P04755+P09478+P17644); assay: as above; assay type: cell-based, D. melanogaster
T3 construct: Dα1 (NP_524481); Dα2 (NP_524482); Dβ1 (NP_523927); expressed in transfected cells; host or cells: Xenopus laevis oocytes (cRNA injection)
Procedure: as §1, §2, §3, §4, §5

[4] = molecular target: T4, Dα1/Dα2/Dβ1/Dβ2/Dβ3 nAChR; assay: as above; assay type: cell-based, D. melanogaster; conditions: mean ± standard error (n = 5); for Imax: normalised to maximum ACh response
T4 construct: Dα1 (NP_524481); Dα2 (NP_524482); Dβ1 (NP_523927); Dβ2 (NP_524483); expressed in transfected cells; host or cells: Xenopus laevis oocytes (cRNA injection)
Procedure: as §1, §2, §3, §4, §5

[5] = molecular target: T5, Dα2/Dα3/Dβ1 nAChR (Drosophila melanogaster, UniProt P04755+P17644+Q9W3G6); assay: as above; assay type: cell-based, D. melanogaster; conditions: Dα2/Dα3/Dβ1 nAChR, mean ± standard error (n = 5)
T5 construct: Dα2 (NP_524482); Dβ1 (NP_523927); expressed in transfected cells; host or cells: Xenopus laevis oocytes (cRNA injection)
Procedure: as §1, §2, §3, §4, §5

[6] = molecular target: T6, Dα2/Dα3/Dβ1/Dβ2/Dβ3 nAChR; assay: as above; assay type: cell-based, D. melanogaster; conditions: mean ± standard error (n = 5); for Imax: normalised to maximum ACh response
T6 construct: Dα2 (NP_524482); Dβ1 (NP_523927); Dβ2 (NP_524483); expressed in transfected cells; host or cells: Xenopus laevis oocytes (cRNA injection)
Procedure: as §1, §2, §3, §4, §5

[7] = test system: D. melanogaster larvae; assay: Pupariation rate assay; assay type: in vivo
Procedure: All flies were raised at 25°C under 12 h/12 h light/dark cycle. The animals were reared on standard fly food containing 5.5 g agar, 100 g glucose, 40 g dry yeast, 90 g cornflour, 3 mL propionic acid, and 3.5 mL 10% butyl p-hydroxybenzoate (Nacalai Tesque, Japan, #06327–15) in 70% ethanol per liter. The control strain was w^1118, and transgenic flies are as follows: UAS-nAChRα1 RNAi (#28688) was obtained from the Bloomington Drosophila Stock Center (BDSC); UAS-nAChRα2 RNAi (UAS-Dα2 RNAi, #10760), UAS-nAChRα3 RNAi (UAS-Dα3 RNAi, #101806); UAS-dicer2 (#60009) were obtained from the Vienna Drosophila Resource Center (VDRC); and UAS-mCD8::GFP (#108068) was obtained from Kyoto Stock Center. elav-Gal4 (3A3) was obtained from Michael B. O’Connor. nAChRα3-knock-in 2A-Gal4 (Dα3-knock-in T2A-Gal4) was generated by the CRISPR/Cas9 system as described in detail below.
Eggs were laid on grape juice plates with yeast paste at 25°C for 6 h. […] After a week of incubation at 25°C, pupal numbers were scored in each vial.

[8] = normalised to maximum ACh response
[9] = efficacy, mean ± standard error (n = 5)
[10] = mean ± standard error (n = 5), read-out: pEC50 (converted)
[11] = normalised to maximum ACh response, mean ± standard error (n = 5)
[12] = RNAi of Dα1 (pan-neuronal knockdown) vs control
[13] = RNAi of Dα2 (pan-neuronal knockdown) vs control

SMILES | EC50 [1] [µM] | Imax [1, 8] | Imax ([1]; efficacy) | Imax ([2]; efficacy) | pEC50 [2] | Imax [2, 8] | Imax [3, 9] | EC50 [3, 10] [µM] | Imax [3, 11] | pEC50 [4] | Imax [4] | EC50 [5] [µM] | Imax [5, 8] | Imax ([5]; efficacy) | pEC50 [6] | Imax [6] | toxicity in larvae, effect of RNAi [7, 12] | toxicity in larvae, effect of RNAi [7, 13] | further results
CN/C(=N\[N+](=O)[O-])NCc1cnc(Cl)s1 [Clothianidin, clothianidin] | 0.0288 | 0.691 ± 0.013 | 0.691 | 0.812 | 6.59 ± 0.07 | 0.812 ± 0.019 | 0.699 | 8.51 | 0.699 ± 0.034 | 5.67 ± 0.11 | 0.974 ± 0.041 | 0.155 | 0.882 ± 0.076 | 0.882 | 7.46 ± 0.06 | 0.695 ± 0.014 | reduced toxicity | reduced toxicity | Imax ([2]; normalised to maximum ACh response, listed as clothianidin): 0.812; Imax ([4]; listed as clothianidin): 0.974
O=[N+]([O-])NC1=NCCN1Cc1ccc(Cl)nc1 [Imidacloprid, imidacloprid] | 0.00479 | 0.032 ± 0.003 | 0.032 | 0.142 | 6.47 ± 0.14 | 0.142 ± 0.011 | 0.031 | 0.195 | 0.031 ± 0.002 | 6.27 ± 0.21 | 0.080 ± 0.007 | 0.132 | 0.101 ± 0.016 | 0.101 | 7.75 ± 0.31 | 0.021 ± 0.003 | reduced toxicity | reduced toxicity | Imax ([2]; normalised to maximum ACh response, listed as imidacloprid): 0.142; Imax ([4]; listed as imidacloprid): 0.080; Imax ([6]; listed as imidacloprid): 0.021
N#C/N=C1\SCCN1Cc1ccc(Cl)nc1 [Thiacloprid, thiacloprid] | 0.0158 | 0.016 ± 0.001 | 0.016 | 0.059 | 7.18 ± 0.17 | 0.059 ± 0.006 | 0.025 |  | 0.025 ± 0.001 | 7.71 ± 0.43 | 0.023 ± 0.004 | 0.12 | 0.045 ± 0.006 | 0.045 | 8.31 ± 0.17 | 0.010 ± 0.001 | reduced toxicity | reduced toxicity | Imax ([2]; normalised to maximum ACh response, listed as thiacloprid): 0.059; EC50 ([3]; read-out: EC50): 0.12 µM; Imax ([4]; listed as thiacloprid): 0.023; Imax ([6]; listed as thiacloprid): 0.010
CC(=O)OCC[N+](C)(C)C [ACh, acetylcholine] |  |  | 1 | 1 |  |  | 1 |  |  |  |  |  |  | 1 |  |  |  |  | 
